{"source": "paper PMC5107951", "about": "(Scientific Reports, 2016)", "origin": "cited, not measured here", "test_system": "GABA-A receptor", "details": "cited from earlier work", "data": [{"substance": "α-cobratoxin", "values": [{"measurement": "binding to GABA-A receptor (in words)", "result": "also binds"}]}, {"substance": "α-conotoxin ImI", "values": [{"measurement": "binding to GABA-A receptor (in words)", "result": "low affinity"}]}]}
